Laboratory results reported in US5541232A, “Treatment of multidrug resistant diseases” (Chemex Pharmaceuticals, Inc., priority 1994, dated 1996).

Assays:
[1] = system: GRC-1 multidrug resistant human cervical carcinoma cells; test: inhibition of colony formation, GRC-1; assay type: cell-based
Description: (§1) To investigate whether masoprocol modulates multidrug resistance, a line of multidrug resistant (GRC-1) cells which were derived from parenteral drug sensitive human cervical carcinoma (KB-3-1) cells by transfection of the mdr1 genes were employed. Such transfection was by the method set forth in Choi, et al., Cell 53:519-529, 1989. These cell lines differ only with respect to the over-expression of P-glycoprotein. These tests were designed to examine whether masoprocol modulates tumor cell drug resistance by interfering with P-glycoprotein function. […] See, Regulation of initial vinblastine influx by P-glycoprotein, Shalinsky, et al., cited above.
Masoprocol was provided by Chemex Pharmaceuticals, Inc. (Fort Lee, N.J.). Tritiated vinblastine ([^3 H]VBL) (10 Ci mmol^-1) was purchased from Moravek Biochemicals (Brea, Calif.), stored in the dark at -80° C. and protected from light during the experiments. Dipyridamole (DPM) was provided by Boerhinger Ingelheim Pharmaceuticals, Inc. (Ridgefield, Conn.).
Drug-sensitive KB-3-1 cells and the drug resistant subline (KB-GRC-1) were obtained from Dr. Igor Roninson (University of Illinois, College of Medicine, Chicago, Ill.). Cells were maintained in Dulbecco's modified Eagle's medium supplemented with 10% fetal bovine serum and 2 mM glutamine. The KB-GRC-1 cells were maintained in medium supplemented with 6 ng/ml colchicine.
(§2) First, cells which had been seeded at 200-300 cells/dish were incubated in media containing masoprocol or VBL. After an incubation period of 10 days at 37° C. the cells were fixed with methanol and stained with Giemsa, and the number of colonies per dish were counted and expressed as a percent of the number of colonies in control conditions. […] Parenthesis indicate standard deviations determined from replicate experiments.

P-glycoprotein [2] = settings: cited from earlier work
P-glycoprotein [3] = settings: known, Shalinsky et al.; cited from earlier work
[4] = system: KB-3-1 human cervical carcinoma cells; test: inhibition of colony formation, KB-3-1; assay type: cell-based; settings: KB 3-1, 240 h, read-out: IC50 (VBL), 50% inhibition of colony formation
Description: as §1
Masoprocol was provided by Chemex Pharmaceuticals, Inc. (Fort Lee, N.J.). Tritiated vinblastine ([^3 H]VBL) (10 Ci mmol^-1) was purchased from Moravek Biochemicals (Brea, Calif.), stored in the dark at -80° C. and protected from light during the experiments. […]
as §2

[5] = system: human breast adenocarcinoma; settings: cited from earlier work
[6] = system: MCF7/ADR human breast adenocarcinoma cells; test: flow cytometry P-glycoprotein function assay of doxorubicin efflux, MCF7/ADR (doxorubicin resistant); assay type: cell-based
Protocol: (§3) The following tests were preformed to determine the effect of NDGA on efflux of doxorubicin (hereinafter sometimes referred to as DOX) for doxorubicin sensitive MCF7/0 and doxorubicin resistant MCF7/ADR human breast adenocarcinoma cells in vitro.
(§4) The cells were exposed to 50 μg/ml NDGA for 24 hrs prior to loading with DOX (doxorubicin) at 37° C. […] PBS. Flow analysis of cell efflux of DOX was collected over 30 minutes using the time parameter.
(§5) Procedure for P-Glycoprotein (PGP) Function Assay of Doxorubicin Efflux is shown hereunder.
(§6) 1. […] Store at room temperature.
(§7) 2. Doxorubicin (GFW=580) Make a solution of doxorubicin to contain 10 μg/ml. Store frozen at 0° C.
(§8) 4. NDGA (MW=302.36) Make a solution of NDGA to contain 50 μg/ml. Store frozen at 0° C.
(§9) 5. MCF7/0 (Doxorubicin sensitive) and MCF7/ADR (Doxorubicin resistant), human breast adenocarcinoma cell lines.
(§10) 1. Make up 2×10^6 cells per ml in PBS. Expose 1 ml of cells to 50 μg of NDGA for 24 hrs at 37° C. prior to loading with Doxorubicin.
(§11) 2. Add 1 ml of 10 μg/ml doxorubicin, mix and divide into two aliquots.
(§12) 4. Incubate both tubes at 37° C. for 30 minutes.
(§13) 5. Centrifuge the tubes at 37° C. for 5 minutes on a fast spin to pellet cells. Resuspend in 1 ml of buffer.
(§14) 6. Run immediately on the flow cytometer. Excitation 488 nm, emission 560-600 nm. Collect forward and 90° side scatter and PMT4 linear scale. Collect 10,000-50,000 events and calculate the mean channel fluorescence (MCF) for PMT4.
(§15) 7. Run both samples as close together as possible, and avoid prolonged exposure to room temperature.

SNB Glioblastoma cells = test: in vitro cytotoxicity anti tumor activity; assay type: cell-based
[7] = system: MCF7/0 human breast adenocarcinoma cells; test: flow cytometry P-glycoprotein function assay of doxorubicin efflux, MCF7/0 (doxorubicin sensitive); assay type: cell-based
Protocol: as §3, §4, §5, §6, §7, §8, §9, §10, §11, §12, §13, §14, §15

[8] = system: Hs 68 Newborn Foreskin Fibroblasts; test: in vitro cytotoxicity, normal cells; assay type: cell-based; settings: Homo sapiens
CAK-1 Renal cancer cells = test: in vitro cytotoxicity anti tumor activity; assay type: cell-based
WI-38 Lung Fibroblasts = test: in vitro cytotoxicity, normal cells; assay type: cell-based; settings: Homo sapiens
[9] = system: Lung (NCI-H23) cancer cells; test: in vitro cytotoxicity anti tumor activity; assay type: cell-based; settings: Homo sapiens
[10] = system: OVCAR3 ovarian cancer cells; test: in vitro cytotoxicity anti tumor activity; assay type: cell-based; settings: Homo sapiens
[11] = system: Detroit 551 Skin Fibroblasts; test: in vitro cytotoxicity, normal cells; assay type: cell-based; settings: Homo sapiens
Lung (LX-1) cancer cells = test: in vitro cytotoxicity anti tumor activity; assay type: cell-based; settings: 1 h
DLD-1 Colon cancer cells = test: in vitro cytotoxicity anti tumor activity; assay type: cell-based; settings: Homo sapiens
LOX-IMVI Melanoma cells = test: in vitro cytotoxicity anti tumor activity; assay type: cell-based; settings: Homo sapiens
[12] = No NDGA, DOX + Verapamil (30 μl of a 1 mM solution)
[13] = No NDGA, DOX alone, 5 μg×30 min, 37° C.
[14] = RX NDGA (50 μg/ml, 24 hrs), DOX
[15] = RX NDGA (50 μg/ml, 24 hrs), DOX + Verapamil

## CC[C@]1(O)C[C@@H]2CN(CCc3c([nH]c4ccccc34)[C@@](C(=O)OC)(c3cc4c(cc3OC)N(C)[C@H]3[C@@](O)(C(=O)OC)[C@H](OC(C)=O)[C@]5(CC)C=CCN6CC[C@]43[C@@H]65)C2)C1 [VBL]
[1]; GRC-1 vs KB-3-1
  sensitivity of GRC-1 compared with KB-3-1 cells: large differences in sensitivity
[1]; Homo sapiens, 240 h, read-out: IC50 (VBL), 50% inhibition of colony formation
  IC50: 52.2 nM
P-glycoprotein [2]
  steady state accumulation and efflux in cells overexpressing mdr1: decreased steady state accumulation and increased efflux
P-glycoprotein [3]
  P-glycoprotein substrate: known to be a P-glycoprotein substrate
[4]
  IC50: 1.38 nM

## C[C@@H](Cc1ccc(O)c(O)c1)[C@@H](C)Cc1ccc(O)c(O)c1 (relative stereo) [d,l NDGA]
[5]
  effectiveness against human breast adenocarcinoma: particularly effective

## Oc1ccc(CCCCc2ccccc2)cc1O [1-(3',4'-dihydroxyphenyl)-4-phenyl butane]
[5]
  effectiveness against human breast adenocarcinoma: particularly effective

## CCC(=O)Oc1ccc(C[C@@H](C)[C@@H](C)Cc2ccc(OC(=O)CC)c(OC(=O)CC)c2)cc1OC(=O)CC [NDGA Tetrapropionate]
[5]
  effectiveness against human breast adenocarcinoma: particularly effective

## Oc1ccc(CCCCc2ccc(O)c(O)c2O)cc1O [1-(3',4'-dihydroxyphenyl)-4-(2',3',4'-trihydroxphenyl)-butane]
[5]
  effectiveness against human breast adenocarcinoma: particularly effective

## CC(=O)Oc1ccc(C[C@@H](C)[C@@H](C)Cc2ccc(OC(C)=O)c(OC(C)=O)c2)cc1OC(C)=O [NDGA Tetracetate]
[5]
  effectiveness against human breast adenocarcinoma: particularly effective

## COc1cc(CC(C)C(C)Cc2ccc(O)c(OC)c2)ccc1O (centres unmarked) [1,4-bis(3'-methoxy-4'-hydroxyphenyl)-2,3-dimethyl butane]
[5]
  effectiveness against human breast adenocarcinoma: particularly effective

## COc1cccc2c1C(=O)c1c(O)c3c(c(O)c1C2=O)C[C@@](O)(C(=O)CO)C[C@@H]3O[C@H]1C[C@H](N)[C@H](O)[C@H](C)O1 [Doxorubicin]
[6]; [12]
  Mean channel fluorescence (loading of DOX in cells): 309.9
[6]; [13]
  Mean channel fluorescence (loading of DOX in cells): 227.4
[6]; [14]
  Mean channel fluorescence (loading of DOX in cells): 285.6
[6]; [15]
  Mean channel fluorescence (loading of DOX in cells): 365.4
SNB Glioblastoma cells; 1 h
  IC50: 700 nM
SNB Glioblastoma cells; 70 h
  IC50: 30 nM
[7]; [12]
  Mean channel fluorescence (loading of DOX in cells): 312.8
[7]; [13]
  Mean channel fluorescence (loading of DOX in cells): 318.7
[7]; [14]
  Mean channel fluorescence (loading of DOX in cells): 460.4
[7]; [15]
  Mean channel fluorescence (loading of DOX in cells): 435.6
[8]; Hs68, 1 h
  IC50: 11600 nM
[8]; Hs68, 70 h
  IC50: 120 nM
CAK-1 Renal cancer cells; 1 h
  IC50: 3800 nM
CAK-1 Renal cancer cells; 70 h
  IC50: 110 nM
WI-38 Lung Fibroblasts; WI-38, 1 h
  IC50: 10000 nM
WI-38 Lung Fibroblasts; WI-38, 70 h
  IC50: 600 nM
[9]; NCI-H23, 1 h
  IC50: 9300 nM
[9]; NCI-H23, 70 h
  IC50: 150 nM
[10]; OVCAR-3, 1 h
  IC50: 13800 nM
[10]; OVCAR-3, 70 h
  IC50: 700 nM
[11]; Detroit 551, 1 h
  IC50: 3200 nM
[11]; Detroit 551, 70 h
  IC50: 5500 nM
Lung (LX-1) cancer cells
  IC50: 26000 nM
DLD-1 Colon cancer cells; DLD-1, 1 h
  IC50: 3700 nM
DLD-1 Colon cancer cells; DLD-1, 70 h
  IC50: 420 nM
LOX-IMVI Melanoma cells; 1 h
  IC50: 4800 nM
LOX-IMVI Melanoma cells; 70 h
  IC50: 90 nM

## Oc1ccc(O)c(CCCCc2ccc(O)c(O)c2)c1 [1-(3',4'-dihydroxyphenyl)-4-(2',5'-dihydroxyphenyl)-butane]
[5]
  effectiveness against human breast adenocarcinoma: particularly effective

## COc1cc(CCCCc2ccc(O)c(OC)c2)ccc1O [1,4-bis(3'-methoxy-4'-hydroxyphenylbutane]
[5]
  effectiveness against human breast adenocarcinoma: particularly effective

## Oc1ccc(CCCCc2cc(O)c(O)c(O)c2)cc1O [1-(3',4'-dihydroxyphenyl)-4(3',4',5'-trihydroxyphenyl)-butane]
[5]
  effectiveness against human breast adenocarcinoma: particularly effective
